Read-outs that look alike come from different tables or passages of the source.
What was measured:
Format in all cases: in vitro ADME
CYP1A2 = target: T1, CYP1A2 (Homo sapiens, UniProt P05177); experiment: in vitro; conditions: human liver microsomes, substrate phenacetin, read-out: CYP1A2 Inh %
T1 construct: using isoform-specific substrates incubated with human liver microsomes; tissue Eurofins protocol ITEMG232; host or cells: human liver microsomes
Protocol: (§1) The following substrates were used; CYP1 Å phenacetin, […] bupropion, CYP2C8 paclitaxel and amodiaquine, CYP2C9 diclofenac, CYP2C19 omeprazole, CYP2D6 dextromethorphan, CYP3 Å midazolam and testosterone.
(§2) At the end of the incubation, the formation of metabolite was monitored by HPLC-MS/MS as the peak area response.

CYP3A4&5 = experiment: CYP inhibition in human liver microsomes (testosterone); conditions: probe testosterone, substrate testosterone, read-out: CYP3A4&5 testosterone Inh %
Protocol: as §1, §2

[1] = Metabolic stability in pooled human liver microsomes; conditions: pooled human liver microsomes 0.5 mg/mL, 1 μM compound, 37° C.
Protocol: Pooled human liver microsomes in PBS at a concentration of 0.5 mg/mL was incubated with or without 1 mM NADPH for 70 min at 37° C. Test compound was added after 10 minutes to a final concentration of 1 μM. Samples were withdrawn at 0, 5, 15 and 60 minutes and added to test tubes containing acetonitrile, to stop the reaction, and with terfenadine, used as internal standard. After centrifugation at 10 000×g for 5 minutes the supernatant was diluted 1:1 with 1% formic acid. Samples were separated on a reverse phase column and detected by triple quadrupole MSMS (Agilant model 6540). The concentration of the parent compound at the different time points was measured with an external standard curve using terfenadine as internal standard and the initial metabolic rate in the presence or absence of NADPH calculated.

CYP2B6 = target: T2, CYP2B6 (Homo sapiens, UniProt P20813); experiment: CYP inhibition in human liver microsomes; conditions: probe bupropion, substrate bupropion, read-out: CYP2B6 Inh %
T2 construct: using isoform-specific substrates incubated with human liver microsomes; tissue Eurofins protocol ITEMG232; host or cells: human liver microsomes
T2 sequence (P20813 1-491): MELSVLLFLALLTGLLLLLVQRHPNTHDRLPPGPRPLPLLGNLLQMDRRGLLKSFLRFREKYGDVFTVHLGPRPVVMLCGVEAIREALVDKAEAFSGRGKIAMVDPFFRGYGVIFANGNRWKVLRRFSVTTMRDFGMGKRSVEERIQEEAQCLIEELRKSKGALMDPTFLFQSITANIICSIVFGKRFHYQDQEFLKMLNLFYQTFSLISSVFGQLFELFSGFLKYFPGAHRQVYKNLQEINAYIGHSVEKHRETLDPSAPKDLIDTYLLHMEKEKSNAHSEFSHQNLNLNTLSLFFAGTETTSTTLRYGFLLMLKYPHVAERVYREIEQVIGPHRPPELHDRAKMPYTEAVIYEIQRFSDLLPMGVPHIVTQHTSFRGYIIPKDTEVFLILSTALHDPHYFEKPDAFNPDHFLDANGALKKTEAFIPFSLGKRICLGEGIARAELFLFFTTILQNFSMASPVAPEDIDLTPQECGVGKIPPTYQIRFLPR
Protocol: as §1, §2

CYP2C8 = target: T3, CYP2C8 (Homo sapiens, UniProt P10632); experiment: CYP inhibition in human liver microsomes; conditions: probe paclitaxel and amodiaquine, substrates paclitaxel and amodiaquine, read-out: CYP2C8 Inh %
T3 construct: using isoform-specific substrates incubated with human liver microsomes; tissue Eurofins protocol ITEMG232; host or cells: human liver microsomes
T3 sequence (P10632 1-490): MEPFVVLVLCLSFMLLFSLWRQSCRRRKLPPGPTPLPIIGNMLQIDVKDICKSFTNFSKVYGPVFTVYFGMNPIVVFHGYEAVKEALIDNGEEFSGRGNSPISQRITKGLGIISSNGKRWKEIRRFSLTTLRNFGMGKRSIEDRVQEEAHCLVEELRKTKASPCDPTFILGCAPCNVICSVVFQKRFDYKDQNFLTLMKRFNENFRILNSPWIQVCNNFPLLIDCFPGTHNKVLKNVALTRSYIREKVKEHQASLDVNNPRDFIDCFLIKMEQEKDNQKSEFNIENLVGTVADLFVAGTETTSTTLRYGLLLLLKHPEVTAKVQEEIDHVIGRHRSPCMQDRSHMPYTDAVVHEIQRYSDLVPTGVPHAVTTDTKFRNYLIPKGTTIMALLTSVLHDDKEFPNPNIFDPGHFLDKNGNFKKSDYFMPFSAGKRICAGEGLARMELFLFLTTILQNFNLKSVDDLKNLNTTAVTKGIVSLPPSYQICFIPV
Protocol: as §1, §2

CYP2D6 = target: T4, CYP2D6 (Homo sapiens, UniProt P10635); experiment: CYP inhibition in human liver microsomes; conditions: probe dextromethorphan, substrate dextromethorphan, read-out: CYP2D6 Inh %
T4 construct: tissue Eurofins protocol ITEMG232; host or cells: human liver microsomes
T4 sequence (P10635 whole entry): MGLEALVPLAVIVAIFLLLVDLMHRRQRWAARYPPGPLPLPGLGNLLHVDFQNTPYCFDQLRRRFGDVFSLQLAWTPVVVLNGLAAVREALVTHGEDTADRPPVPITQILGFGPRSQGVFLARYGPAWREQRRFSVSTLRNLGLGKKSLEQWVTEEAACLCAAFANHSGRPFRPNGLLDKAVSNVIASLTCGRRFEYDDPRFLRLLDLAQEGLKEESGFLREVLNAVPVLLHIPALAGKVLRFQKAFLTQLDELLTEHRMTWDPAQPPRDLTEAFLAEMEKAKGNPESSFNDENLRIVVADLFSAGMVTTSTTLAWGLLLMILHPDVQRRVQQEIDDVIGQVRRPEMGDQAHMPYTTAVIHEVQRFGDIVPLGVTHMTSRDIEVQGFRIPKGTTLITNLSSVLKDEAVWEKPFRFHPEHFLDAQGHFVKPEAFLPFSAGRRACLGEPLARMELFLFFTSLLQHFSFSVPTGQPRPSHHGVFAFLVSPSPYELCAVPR
Protocol: as §1, §2

CYP2C19 = target: T5, CYP2C19 (Homo sapiens, UniProt P33261); experiment: CYP inhibition in human liver microsomes; conditions: probe omeprazole, substrate omeprazole, read-out: CYP2C19 Inh %
T5 construct: using isoform-specific substrates incubated with human liver microsomes; tissue Eurofins protocol ITEMG232; host or cells: human liver microsomes
T5 sequence (P33261 whole entry, canonical isoform): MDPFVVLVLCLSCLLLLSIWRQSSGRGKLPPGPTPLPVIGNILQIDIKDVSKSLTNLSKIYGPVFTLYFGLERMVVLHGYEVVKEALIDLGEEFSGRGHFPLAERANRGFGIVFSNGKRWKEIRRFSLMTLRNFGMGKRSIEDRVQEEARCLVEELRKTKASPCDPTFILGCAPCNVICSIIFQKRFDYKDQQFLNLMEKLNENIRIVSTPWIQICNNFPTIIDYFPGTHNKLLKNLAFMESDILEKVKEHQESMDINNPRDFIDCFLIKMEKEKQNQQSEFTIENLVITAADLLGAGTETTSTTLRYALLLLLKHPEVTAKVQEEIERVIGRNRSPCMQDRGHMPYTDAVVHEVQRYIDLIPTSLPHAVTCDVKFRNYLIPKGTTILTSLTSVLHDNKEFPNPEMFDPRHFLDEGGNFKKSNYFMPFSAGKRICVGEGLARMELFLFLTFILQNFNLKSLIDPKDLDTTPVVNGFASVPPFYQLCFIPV
Protocol: as §1, §2

CYP2C9 [2] = target: T6, CYP2C9 (Homo sapiens, UniProt P11712); experiment: CYP inhibition in human liver microsomes; parameters: using isoform-specific substrates incubated with human liver microsomes; tissue Eurofins protocol ITEMG232; host or cells: human liver microsomes; conditions: probe diclofenac, substrate diclofenac, read-out: CYP2C9 Inh %
T6 sequence (P11712 whole entry, canonical isoform): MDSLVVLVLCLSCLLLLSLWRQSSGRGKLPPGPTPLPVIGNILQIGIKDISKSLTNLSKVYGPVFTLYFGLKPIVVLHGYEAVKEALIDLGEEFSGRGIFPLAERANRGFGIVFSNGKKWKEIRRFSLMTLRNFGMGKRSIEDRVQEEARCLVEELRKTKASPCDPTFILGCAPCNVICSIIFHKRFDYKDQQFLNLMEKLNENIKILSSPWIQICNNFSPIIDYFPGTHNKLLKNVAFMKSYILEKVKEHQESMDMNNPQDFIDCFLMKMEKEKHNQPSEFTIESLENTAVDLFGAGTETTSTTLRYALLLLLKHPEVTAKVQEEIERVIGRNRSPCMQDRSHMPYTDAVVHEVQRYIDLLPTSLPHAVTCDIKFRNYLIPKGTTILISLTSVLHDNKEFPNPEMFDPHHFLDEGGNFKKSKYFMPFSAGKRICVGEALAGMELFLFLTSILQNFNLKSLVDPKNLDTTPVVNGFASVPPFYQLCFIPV
Protocol: as §1, §2

CYP3A4 [3] = target: T7, CYP3A4 (Homo sapiens, UniProt P08684); experiment: CYP inhibition in human liver microsomes (midazolam); parameters: using isoform-specific substrates incubated with human liver microsomes; tissue Eurofins protocol ITEMG232; host or cells: human liver microsomes; conditions: probe midazolam, substrate midazolam, read-out: CYP3A4 midazolam Inh %
T7 sequence (P08684 whole entry, canonical isoform): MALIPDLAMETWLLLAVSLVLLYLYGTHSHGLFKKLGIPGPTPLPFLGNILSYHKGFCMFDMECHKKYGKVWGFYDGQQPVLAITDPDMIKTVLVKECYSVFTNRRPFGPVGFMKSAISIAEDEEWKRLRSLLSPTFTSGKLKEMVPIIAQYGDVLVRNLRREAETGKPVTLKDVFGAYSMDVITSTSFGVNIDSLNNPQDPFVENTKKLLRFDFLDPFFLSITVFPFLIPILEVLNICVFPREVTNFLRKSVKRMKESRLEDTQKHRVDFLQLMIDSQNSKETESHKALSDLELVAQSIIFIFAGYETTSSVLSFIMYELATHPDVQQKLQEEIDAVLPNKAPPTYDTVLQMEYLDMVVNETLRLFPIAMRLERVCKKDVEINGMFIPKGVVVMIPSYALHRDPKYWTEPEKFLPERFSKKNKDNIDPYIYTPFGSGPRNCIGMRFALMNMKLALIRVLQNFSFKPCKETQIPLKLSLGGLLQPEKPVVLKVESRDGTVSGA
Protocol: as §1, §2

CYP2C9 [4] = target: T6, CYP2C9; experiment: CYP inhibition found during development of C21
[5] = Metabolic hydrolysis found during development of C21
CYP3A4 [6] = target: T7, CYP3A4; experiment: CYP inhibition found during development of C21
[7] = with 1 mM NADPH, read-out: T1/2, + NaDPH
[8] = without NADPH, read-out: T1/2, no NaDPH

T1 sequence (P05177 whole entry, canonical isoform): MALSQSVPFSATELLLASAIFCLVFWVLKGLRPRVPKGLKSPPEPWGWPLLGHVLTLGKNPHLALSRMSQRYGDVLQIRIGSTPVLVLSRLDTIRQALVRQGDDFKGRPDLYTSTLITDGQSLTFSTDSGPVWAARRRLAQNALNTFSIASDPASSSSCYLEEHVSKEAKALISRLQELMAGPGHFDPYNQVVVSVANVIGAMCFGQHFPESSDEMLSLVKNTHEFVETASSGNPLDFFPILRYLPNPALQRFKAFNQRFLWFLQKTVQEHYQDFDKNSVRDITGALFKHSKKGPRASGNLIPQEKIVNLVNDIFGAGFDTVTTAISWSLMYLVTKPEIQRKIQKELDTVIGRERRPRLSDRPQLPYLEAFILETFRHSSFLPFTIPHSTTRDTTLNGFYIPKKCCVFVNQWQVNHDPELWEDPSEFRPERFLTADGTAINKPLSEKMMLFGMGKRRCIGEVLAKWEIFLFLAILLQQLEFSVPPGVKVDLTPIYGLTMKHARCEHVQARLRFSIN

## Cc1nccn1Cc1ccc(-c2cc(CC(C)C)sc2S(=O)(=O)Nc2ncccn2)cc1Cl [Example 1, 3-[3-Chloro-4-[(2-methylimidazol-1-yl)methyl]phenyl]-5-isobutyl-N-pyrimidin-2-yl-thiophene-2-sulfonamide]
CYP1A2
  inhibition at 10 µM: 12.3%
CYP3A4&5
  inhibition at 10 µM: 40.1%
[1]; [7]
  half-life at 1 μM: > 1 h
[1]; [8]
  half-life at 1 μM: > 1 h
CYP2B6
  inhibition at 10 µM: 22.4%
CYP2C8
  inhibition at 10 µM: 33.9%
CYP2D6
  inhibition at 10 µM: 28.3%
CYP2C19
  inhibition at 10 µM: 72.7%
CYP2C9 [2]
  inhibition at 10 µM: 49.4%
CYP3A4 [3]
  inhibition at 10 µM: 40.1%

## CCCCOC(=O)NS(=O)(=O)c1sc(CC(C)C)cc1-c1ccc(Cn2ccnc2)cc1 [Example C21, N-butyloxycarbonyl-3-(4-imidazol-1-ylmethylphenyl)-5-isobutylthiophene-2-sulfon-amide]
CYP2C9 [4]
  inhibition of CYP 2C9 (in words): potent inhibitor
CYP3A4&5
  inhibition at 10 µM: 94%
[5]
  metabolic hydrolysis (in words): rapidly hydrolysed to an inactive sulfonamide metabolite
CYP3A4 [6]
  inhibition of CYP 3A4 (in words): potent inhibitor

## Cc1cc(-c2cc(CC(C)C)sc2S(=O)(=O)Nc2ccccn2)ccc1Cn1ccnc1C [Example 3, 5-Isobutyl-3-[3-methyl-4-[(2-methylimidazol-1-yl)methyl]phenyl]-N-(2-pyridyl)thiophene-2-sulfonamide]
[1]; [7]
  half-life at 1 μM: 0.883 h
[1]; [8]
  half-life at 1 μM: > 1 h

## Cc1nccn1Cc1ccc(-c2cc(CC(C)C)sc2S(=O)(=O)Nc2ccccn2)cc1Cl [Example 2, 3-[3-Chloro-4-[(2-methylimidazol-1-yl)methyl]phenyl]-5-isobutyl-N-(2-pyridyl)thiophene-2-sulfonamide]
[1]; [7]
  half-life at 1 μM: 1 h
[1]; [8]
  half-life at 1 μM: > 1 h

— patent publication US20260209213A1, “SELECTIVE ANGIOTENSIN II COMPOUNDS” (VICORE PHARMA AB, priority 2023, published 2026)
